Measurements reported in PubChem BioAssay (NCI).
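Five compound concentrations were applied to cells in 96-well plates for 48 hours; endpoints were derived by simple linear interpolation of the resulting dose-response curve. TGI is the concentration that stops growth completely.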

Tests used:
Test in all cases: NCI anticancer screen, dose series, 48 h
NCI-H23 lung = test system: NCI-H23 lung
A549 NSCLC = test system: A549 NSCLC
MCF7 breast = test system: MCF7 breast
DU-145 prostate = test system: DU-145 prostate
CAKI-1 renal = test system: CAKI-1 renal
A498 renal = test system: A498 renal
RPMI-8226 leukemia = test system: RPMI-8226 leukemia
OVCAR-4 ovarian = test system: OVCAR-4 ovarian
MDA-N = test system: MDA-N
IGROV1 ovarian = test system: IGROV1 ovarian
SW-620 colon = test system: SW-620 colon
SNB-19 CNS = test system: SNB-19 CNS
UO-31 renal = test system: UO-31 renal
SN12C renal = test system: SN12C renal
CCRF-CEM leukemia = test system: CCRF-CEM leukemia
COLO 205 colon = test system: COLO 205 colon
UACC-257 melanoma = test system: UACC-257 melanoma
TK-10 renal = test system: TK-10 renal
NCI-H226 lung = test system: NCI-H226 lung
SF-295 CNS = test system: SF-295 CNS
RXF 393 renal = test system: RXF 393 renal
HCT-15 colon = test system: HCT-15 colon
ACHN renal = test system: ACHN renal
HS 578T breast = test system: HS 578T breast
UACC-62 melanoma = test system: UACC-62 melanoma
U251 CNS = test system: U251 CNS
MOLT-4 leukemia = test system: MOLT-4 leukemia
SK-OV-3 ovarian = test system: SK-OV-3 ovarian
NCI-H522 lung = test system: NCI-H522 lung
BT-549 breast = test system: BT-549 breast
HT29 colon = test system: HT29 colon
SF-268 CNS = test system: SF-268 CNS
OVCAR-8 ovarian = test system: OVCAR-8 ovarian
MDA-MB-231 breast = test system: MDA-MB-231 breast
M14 melanoma = test system: M14 melanoma
SF-539 CNS = test system: SF-539 CNS
SK-MEL-28 melanoma = test system: SK-MEL-28 melanoma
OVCAR-3 ovarian = test system: OVCAR-3 ovarian
HCT-116 colon = test system: HCT-116 colon
PC-3 prostate = test system: PC-3 prostate
OVCAR-5 ovarian = test system: OVCAR-5 ovarian
SR leukemia = test system: SR leukemia
MDA-MB-435 = test system: MDA-MB-435
SK-MEL-5 melanoma = test system: SK-MEL-5 melanoma
SK-MEL-2 melanoma = test system: SK-MEL-2 melanoma
LOX IMVI melanoma = test system: LOX IMVI melanoma
NCI/ADR-RES ovarian = test system: NCI/ADR-RES ovarian
MALME-3M melanoma = test system: MALME-3M melanoma
HOP-62 NSCLC = test system: HOP-62 NSCLC
786-0 renal = test system: 786-0 renal
EKVX NSCLC = test system: EKVX NSCLC
NCI-H460 lung = test system: NCI-H460 lung
K-562 leukemia = test system: K-562 leukemia
HL-60(TB) leukemia = test system: HL-60(TB) leukemia
SNB-75 CNS = test system: SNB-75 CNS
T-47D breast = test system: T-47D breast
HOP-92 NSCLC = test system: HOP-92 NSCLC
KM12 colon = test system: KM12 colon
HCC-2998 colon = test system: HCC-2998 colon
DMS 273 small cell lung = test system: DMS 273 small cell lung
DMS 114 small cell lung = test system: DMS 114 small cell lung
KM20L2 colon = test system: KM20L2 colon
XF 498 CNS = test system: XF 498 CNS
HOP-18 NSCLC = test system: HOP-18 NSCLC
M19-MEL melanoma = test system: M19-MEL melanoma
SNB-78 CNS = test system: SNB-78 CNS
DLD-1 colon = test system: DLD-1 colon
LXFL 529 NSCLC = test system: LXFL 529 NSCLC

COC(=O)C(Cc1ccccc1)NC(=O)c1ccc(CNC(=S)NCc2cccc(CNC(=S)NCc3ccccc3)c2)cc1 (configuration not stated)
TGI (NCI-H23 lung): > 62.5 µM | TGI (A549 NSCLC): > 62.5 µM | TGI (MCF7 breast): > 62.5 µM | TGI (DU-145 prostate): > 62.5 µM | TGI (CAKI-1 renal): > 62.5 µM | TGI (A498 renal): > 62.5 µM | TGI (RPMI-8226 leukemia): > 62.5 µM | TGI (OVCAR-4 ovarian): > 62.5 µM | TGI (MDA-N): > 62.5 µM | TGI (IGROV1 ovarian): > 62.5 µM | TGI (SW-620 colon): > 62.5 µM | TGI (SNB-19 CNS): > 62.5 µM | TGI (UO-31 renal): > 62.5 µM | TGI (SN12C renal): > 62.5 µM | TGI (CCRF-CEM leukemia): > 62.5 µM | TGI (COLO 205 colon): > 62.5 µM | TGI (UACC-257 melanoma): > 62.5 µM | TGI (TK-10 renal): > 62.5 µM | TGI (NCI-H226 lung): > 62.5 µM | TGI (SF-295 CNS): > 62.5 µM | TGI (RXF 393 renal): > 62.5 µM | TGI (HCT-15 colon): > 62.5 µM | TGI (ACHN renal): > 62.5 µM | TGI (HS 578T breast): > 62.5 µM | TGI (UACC-62 melanoma): > 62.5 µM | TGI (U251 CNS): > 62.5 µM | TGI (MOLT-4 leukemia): > 62.5 µM | TGI (SK-OV-3 ovarian): > 62.5 µM | TGI (NCI-H522 lung): > 62.5 µM | TGI (BT-549 breast): > 62.5 µM | TGI (HT29 colon): > 62.5 µM | TGI (SF-268 CNS): > 62.5 µM | TGI (OVCAR-8 ovarian): > 62.5 µM | TGI (MDA-MB-231 breast): > 62.5 µM | TGI (M14 melanoma): > 62.5 µM | TGI (SF-539 CNS): > 62.5 µM | TGI (SK-MEL-28 melanoma): > 62.5 µM | TGI (OVCAR-3 ovarian): > 62.5 µM | TGI (HCT-116 colon): > 62.5 µM | TGI (PC-3 prostate): > 62.5 µM | TGI (OVCAR-5 ovarian): > 62.5 µM | TGI (SR leukemia): > 62.5 µM | TGI (MDA-MB-435): > 62.5 µM | TGI (SK-MEL-5 melanoma): > 62.5 µM | TGI (SK-MEL-2 melanoma): > 62.5 µM | TGI (LOX IMVI melanoma): > 62.5 µM | TGI (NCI/ADR-RES ovarian): > 62.5 µM | TGI (MALME-3M melanoma): > 62.5 µM | TGI (HOP-62 NSCLC): > 62.5 µM | TGI (786-0 renal): > 62.5 µM | TGI (EKVX NSCLC): > 62.5 µM | TGI (NCI-H460 lung): > 62.5 µM | TGI (K-562 leukemia): > 62.5 µM | TGI (HL-60(TB) leukemia): > 62.5 µM | TGI (SNB-75 CNS): > 62.5 µM | TGI (T-47D breast): > 62.5 µM | TGI (HOP-92 NSCLC): > 62.5 µM | TGI (KM12 colon): > 62.5 µM | TGI (HCC-2998 colon): > 62.5 µM

COC(=O)[C@@]1(O)CC(C)C=C1C=O (some centres not stated)
TGI (NCI-H23 lung): > 100 µM | TGI (A549 NSCLC): 60.9 µM | TGI (CAKI-1 renal): > 100 µM | TGI (A498 renal): > 100 µM | TGI (RPMI-8226 leukemia): > 100 µM | TGI (OVCAR-4 ovarian): > 100 µM | TGI (DMS 273 small cell lung): 34.6 µM | TGI (IGROV1 ovarian): > 100 µM | TGI (SW-620 colon): > 100 µM | TGI (DMS 114 small cell lung): 89.7 µM | TGI (SNB-19 CNS): > 100 µM | TGI (UO-31 renal): > 100 µM | TGI (SN12C renal): > 100 µM | TGI (KM20L2 colon): > 100 µM | TGI (CCRF-CEM leukemia): > 100 µM | TGI (XF 498 CNS): > 100 µM | TGI (COLO 205 colon): > 100 µM | TGI (UACC-257 melanoma): > 100 µM | TGI (TK-10 renal): > 100 µM | TGI (NCI-H226 lung): > 100 µM | TGI (SF-295 CNS): > 100 µM | TGI (RXF 393 renal): 42.9 µM | TGI (HCT-15 colon): 33.1 µM | TGI (ACHN renal): > 100 µM | TGI (UACC-62 melanoma): > 100 µM | TGI (U251 CNS): 38.4 µM | TGI (MOLT-4 leukemia): > 100 µM | TGI (HOP-18 NSCLC): > 100 µM | TGI (M19-MEL melanoma): > 100 µM | TGI (SK-OV-3 ovarian): > 100 µM | TGI (NCI-H522 lung): 94.9 µM | TGI (HT29 colon): > 100 µM | TGI (SF-268 CNS): > 100 µM | TGI (OVCAR-8 ovarian): > 100 µM | TGI (M14 melanoma): > 100 µM | TGI (SF-539 CNS): > 100 µM | TGI (SK-MEL-28 melanoma): > 100 µM | TGI (OVCAR-3 ovarian): > 100 µM | TGI (HCT-116 colon): 38.4 µM | TGI (OVCAR-5 ovarian): > 100 µM | TGI (SR leukemia): > 100 µM | TGI (SK-MEL-5 melanoma): > 100 µM | TGI (SK-MEL-2 melanoma): > 100 µM | TGI (LOX IMVI melanoma): > 100 µM | TGI (MALME-3M melanoma): > 100 µM | TGI (SNB-78 CNS): > 100 µM | TGI (HOP-62 NSCLC): > 100 µM | TGI (DLD-1 colon): > 100 µM | TGI (786-0 renal): > 100 µM | TGI (EKVX NSCLC): > 100 µM | TGI (NCI-H460 lung): 42.1 µM | TGI (K-562 leukemia): > 100 µM | TGI (HL-60(TB) leukemia): 51.6 µM | TGI (LXFL 529 NSCLC): > 100 µM | TGI (SNB-75 CNS): > 100 µM | TGI (HOP-92 NSCLC): > 100 µM | TGI (KM12 colon): > 100 µM | TGI (HCC-2998 colon): > 100 µM
